In ChEMBL document CHEMBL1250531, “Comparative nuclease and anti-cancer properties of the naturally occurring malabaricones” (Bioorg Med Chem, 2010):
Values belong to the compound of their own block, whether it stands above or below them. Activity calls are given as the source filed them. No cut-off for these calls is given here.

What was measured:
Nucleic Acid [1] = test: Induction of Escherichia coli pBR322 DNA cleavage assessed as linear form of DNA at 25 uM after 45 mins by agarose gel electrophoresis in presence of copper; type: nucleic-acid assay
Nucleic Acid [2] = test: Induction of Escherichia coli pBR322 DNA cleavage at 25 uM after 45 mins under anoxic condition by agarose gel electrophoresis in presence of copper; type: nucleic-acid assay
MCF7 [3] = test: Cytotoxicity against human MCF7 cells after 72 hrs by MTT assay; type: functional, cell-based; conditions: for IC50: MCF7, 72 h
Nucleic Acid [4] = test: Induction of Escherichia coli pBR322 DNA cleavage assessed as open circular form of DNA at 25 uM after 45 mins by agarose gel electrophoresis in presence of copper; type: nucleic-acid assay
MCF7 [5] = test: Cytotoxicity against human MCF7 cells at 100 uM after 72 hrs by MTT assay; type: functional, cell-based
MCF7 [6] = test: Ratio of compound IC50 to curcumin IC50 for human MCF7 cells; type: functional
MCF7 [7] = test: Cytotoxicity against human MCF7 cells at 50 uM after 72 hrs by MTT assay relative to control; type: functional
Calf thymus DNA [8] = test: Binding affinity to calf thymus DNA assessed as increase of ethidium bromide fluorescence quenching at 0.2 mM after 30 mins; type: nucleic-acid assay; conditions: Bos taurus
Nucleic Acid [9] = test: Induction of Escherichia coli pBR322 DNA cleavage at 25 uM after 45 mins by agarose gel electrophoresis in presence of 100 uM of copper and 250 U/ml of superoxide dismutase; type: nucleic-acid assay
Nucleic Acid [10] = test: Induction of Escherichia coli pBR322 DNA cleavage at 25 uM after 45 mins by agarose gel electrophoresis in presence of 100 uM of copper and 250 uM of EDTA; type: nucleic-acid assay
Nucleic Acid [11] = test: Induction of Escherichia coli pBR322 DNA cleavage at 5 to 10 uM uM after 45 mins by agarose gel electrophoresis in presence of 100 uM of copper; type: nucleic-acid assay
Nucleic Acid [12] = test: Induction of Escherichia coli pBR322 DNA cleavage at 25 uM after 45 mins by agarose gel electrophoresis; type: nucleic-acid assay
MCF7 [13] = test: Cytotoxicity against human MCF7 cells assessed as cell viability at 5 uM after 72 hrs by MTT assay; type: functional; conditions: MCF7, 72 h, read-out: Activity
MCF7 [14] = test: Induction of ROS production in human MCF7 cells after 3 hrs by DCFDA assay; type: functional, cell-based
Nucleic Acid [15] = test: Induction of Escherichia coli pBR322 DNA cleavage assessed as supercoiled form of DNA at 25 uM after 45 mins by agarose gel electrophoresis in presence of 100 uM of copper and catalase; type: nucleic-acid assay
Nucleic Acid [16] = test: Induction of Escherichia coli pBR322 DNA cleavage assessed as supercoiled form of DNA at 25 uM after 45 mins by agarose gel electrophoresis in presence of 100 uM of copper; type: nucleic-acid assay
Nucleic Acid [17] = test: Induction of Escherichia coli pBR322 DNA cleavage at 25 uM after 45 mins by agarose gel electrophoresis in presence of 100 uM of copper and 500 U/ml of catalase; type: nucleic-acid assay
Nucleic Acid [18] = test: Induction of Escherichia coli pBR322 DNA cleavage assessed as supercoiled form of DNA at 25 uM after 45 mins by agarose gel electrophoresis in presence of 100 uM of copper and EDTA; type: nucleic-acid assay
[19] = Induction of hydrogen peroxide production at 100 uM after 20 mins by horse radish peroxidase assay relative to control in presence of 100 uM of copper; type: physicochemical
MCF7 [20] = test: Induction of morphological changes in human MCF7 cells at 2.5 to 40 uM after 24 hrs by phase contrast microscopic analysis; type: functional, cell-based
Nucleic Acid [21] = test: Induction of Escherichia coli pBR322 DNA cleavage at 25 uM after 45 mins by agarose gel electrophoresis in presence of <100 uM of copper; type: nucleic-acid assay
Nucleic Acid [22] = test: Induction of Escherichia coli pBR322 DNA cleavage at 25 uM after 45 mins by agarose gel electrophoresis in presence of 100 uM of copper and 500 U/ml of superoxide dismutase; type: nucleic-acid assay
MCF7 [23] = test: Induction of ROS production in human MCF7 cells at 10 uM after 3 hrs by DCFDA assay relative to control; type: functional
Nucleic Acid [24] = test: Induction of Escherichia coli pBR322 DNA cleavage at 25 uM after 45 mins by agarose gel electrophoresis in presence of 100 uM of copper and 100 mM of mannitol; type: nucleic-acid assay
MCF7 [25] = test: Cytotoxicity against human MCF7 cells assessed as cell viability at 5 uM after 72 hrs by MTT assay pretreated with 1 mM of NAC relative to control; type: functional
Nucleic Acid [26] = test: Induction of Escherichia coli pBR322 DNA cleavage assessed as open circular form of DNA at 25 uM after 30 mins by agarose gel electrophoresis in presence of 100 uM of copper; type: nucleic-acid assay
[27] = Induction of copper chelation assessed as compound copper complex formation at 25 uM by absorption spectroscopic analysis; type: physicochemical
Nucleic Acid [28] = test: Induction of Escherichia coli pBR322 DNA cleavage assessed as supercoiled form of DNA at 25 uM after 45 mins by agarose gel electrophoresis in presence of 100 uM of copper and sodium azide; type: nucleic-acid assay
Nucleic Acid [29] = test: Induction of Escherichia coli pBR322 DNA cleavage at 25 uM after 45 mins by agarose gel electrophoresis in presence of 100 uM of copper and 250 uM of neocuproine; type: nucleic-acid assay
Calf thymus DNA [30] = test: Binding affinity to calf thymus DNA assessed as increase of viscosity of DNA solution at 0.2 mM after 30 mins; type: nucleic-acid assay; conditions: Bos taurus
[31] = Induction of superoxide radical production at 100 uM after 20 mins by NBT reduction assay relative to control in presence of 100 uM of copper; type: physicochemical
MCF7 [32] = test: Induction of ROS production in human MCF7 cells at 15 uM after 3 hrs by DCFDA assay relative to control; type: functional
Nucleic Acid [33] = test: Induction of Escherichia coli pBR322 DNA cleavage at 25 uM after 45 mins by agarose gel electrophoresis in presence of 100 uM of copper and 500 mM of mannitol; type: nucleic-acid assay
Nucleic Acid [34] = test: Induction of Escherichia coli pBR322 DNA cleavage at 25 uM after 45 mins by agarose gel electrophoresis in presence of 100 uM of copper and 100 mM of DMSO; type: nucleic-acid assay
MCF7 [35] = test: Induction of ROS production in human MCF7 cells at 1 mM after 3 hrs by DCFDA assay relative to control; type: functional
Nucleic Acid [36] = test: Induction of Escherichia coli pBR322 DNA cleavage at 25 uM after 45 mins by agarose gel electrophoresis in presence of 100 uM of copper and 100 mM of sodium azide; type: nucleic-acid assay
Calf thymus DNA [37] = test: Binding affinity to calf thymus DNA at 50 uM after 5 mins by absorption spectroscopic analysis; type: nucleic-acid assay; conditions: Bos taurus
MCF7 [38] = test: Induction of apoptosis in human MCF7 cells assessed as DNA ladder formation after 24 hrs using ethidium bromide staining by agarose gel electrophoresis; type: functional, cell-based
Nucleic Acid [39] = test: Induction of Escherichia coli pBR322 DNA cleavage assessed as supercoiled form of DNA at 25 uM after 45 mins by agarose gel electrophoresis in presence of 100 uM of copper and neocuproine; type: nucleic-acid assay

SMILES: O=C(CCCCCCCCc1ccc2c(c1)OCO2)c1c(O)cccc1O
Activity (Nucleic Acid [1]): inactive
Activity (Nucleic Acid [2]): inactive
IC50 (MCF7 [3]): 15.7 µM
Activity (Nucleic Acid [4]): Active

SMILES: C=CCc1ccc(O)c(O)c1
Activity (MCF7 [5]): inactive

SMILES: COc1cc(/C=C/C(=O)CC(=O)/C=C/c2ccc(O)c(OC)c2)ccc1O [CURCUMIN]
fold change (FC) (MCF7 [6]): 4
IC50 (MCF7 [3]): 24.5 µM

Second part, led by results:

Activity (Nucleic Acid [4]): Active
SMILES: O=C(CCCCCCCCc1ccc(O)cc1)c1c(O)cccc1O

Activity (Nucleic Acid [1]): Active
Activity (Nucleic Acid [2]): inactive
Activity (Nucleic Acid [4]): inactive
SMILES: O=C(CCCCCCCCc1ccccc1)c1c(O)cccc1O [MALABARICONE A]
Activity (MCF7 [7]): 12%
Activity (MCF7 [3]): Dose-dependent effect

Activity (Calf thymus DNA [8]): 24.4%
Activity (Nucleic Acid [9]): Active
Activity (Nucleic Acid [10]): inactive
Activity (Nucleic Acid [11]): Active
Activity (Nucleic Acid [12]): inactive
Activity (Nucleic Acid [1]): Active
Activity (Nucleic Acid [15]): 82%
Activity (Nucleic Acid [16]): inactive
Activity (Nucleic Acid [17]): inactive
Activity (Nucleic Acid [18]): 76.2%
Activity [19]: 85%
Activity (Nucleic Acid [21]): inactive
Activity (Nucleic Acid [22]): Active
Activity (Nucleic Acid [24]): Active
Activity (Nucleic Acid [26]): Active
Activity [27]: Active
Activity (Nucleic Acid [28]): 93.1%
Activity (Nucleic Acid [29]): inactive
Activity (Calf thymus DNA [30]): Active
Activity [31]: 42%
Activity (Nucleic Acid [4]): Active
Activity (Nucleic Acid [33]): Active
Activity (Nucleic Acid [34]): Active
Activity (Nucleic Acid [36]): inactive
Activity (Calf thymus DNA [37]): Active
Activity (Nucleic Acid [39]): 98.5%
SMILES: O=C(CCCCCCCCc1ccc(O)c(O)c1)c1c(O)cccc1O [MALABARICONE C]
viability at 5 µM (MCF7 [13]): 45.3%
Activity (MCF7 [14]): Dose-dependent effect
Activity (MCF7 [20]): Active
Activity (MCF7 [23]): 26%
Activity (MCF7 [25]): 75.32%
IC50 (MCF7 [3]): 5.26 µM
Activity (MCF7 [32]): 50%
Activity (MCF7 [35]): 71%
Activity (MCF7 [38]): Dose-dependent effect
